Experimental data: patent US6534082B1, “Method of treating disorders of the eye” (Duke University, priority 1994, dated 2003)

Test system: enucleated cow eyes
Experiment: Constant pressure perfusion of enucleated cow eyes, outflow facility
Conditions: 5 h perfusion, 22° centigrade, 15 mm of mercury; for increase in outflow facility at the end of the experiment versus initial baseline: 0.125 mM drug in perfusion medium, ± SEM; for increase in outflow facility at the end of the experiment versus initial baseline, drug plus cysteine: 0.125 mM drug plus 0.625 mM cysteine
Method: Enunciated cow eyes were obtained from a local commercial abattoir, immediately chilled, and then perfused within twenty-four hours using a standard constant pressure perfusion technique. Pairs of eyes from a single animal were used for each experiment and subjected to the same manipulation except for the experimental drug in the experimental eye of perfusion. Briefly, a 5 mm central cornea trephine button was removed from each eye. Radial iridotomy was performed to prevent artificial deepening of the anterior chamber during perfusion. The anterior chamber was then gently irrigated with perfusion medium to remove pigment which might have been liberated by the iridotomy. A Grant stainless steel fitting was then placed into the cornea and connected by twenty-three gauge polyethylene tubing to the fluid reservoir of the perfusion apparatus.
The perfusion medium was Dulbecco's phosphate-buffered salt solution (PBS) (Grand Island Biological Company, Grand Island, N.Y.) with added 5.5 mM glucose. All solutions were filtered through a 0.2 μm Nuclepore filter.
The initial flow value was determined after the eyes had been perfused for one hour which allowed sufficient time to achieve adequate stability. The corneal fitting was removed, and the anterior chamber was gently emptied and refilled with fresh perfusion medium with added drug or sham solution. The corneal fitting was replaced and the eye was perfused for an additional five hours. The outflow facility (flow/pressure) was calculated at the end of the experiment and compared to the initial baseline after the initial hour (pre-drug, both eyes received control perfusion medium for the first hour). The change in the experimental eye was compared to the change in the fellow control eye by a paired T-test. Control eyes were treated similarly except that an osmotically equivalent amount of sodium chloride was added to the perfusion medium in place of the drug. All perfusions were performed at 22° centigrade and the perfusion pressure was 15 mm of mercury.

| SMILES | increase in outflow facility at the end of the experiment versus initial baseline | increase in outflow facility at the end of the experiment versus initial baseline, drug plus cysteine |
| --- | --- | --- |
| CC1(c2ccccc2)Cc2cc(OCC(=O)O)c(Cl)c(Cl)c2C1=O (stereo not shown) [indacrinone] | 113%±24% | 91%±8 |
| O=C(O)COc1ccc(C(=O)c2cccs2)c(Cl)c1Cl [ticrynafen] | 102%±23% | 80%±9% |
